# Assay results reported in the NIST ThermoML archive (doi:10.1021/je900370q).
# ± gives the expanded uncertainty stated by the source.
# Settings: Crystal; DTA
row,Normal melting temperature [°C],SMILES
1,172.00 ± 1,O=C(/C=C/c1ccc(-c2cccc([N+](=O)[O-])c2)o1)c1cc2ccccc2oc1=O
2,180.00 ± 1,O=C(/C=C/c1ccc(-c2cccc([N+](=O)[O-])c2)o1)c1cccc([N+](=O)[O-])c1
3,142.00 ± 1,O=C(/C=C/c1ccc(-c2cccc([N+](=O)[O-])c2)o1)c1ccccc1 [(E)-3-(5-(3-nitrophenyl)furan-2-yl)-1-phenylprop-2-en-1-one]

# Continued, compound first:
row,SMILES,Normal melting temperature [°C]
1,O=C(/C=C/c1ccc(-c2cccc([N+](=O)[O-])c2)o1)c1ccc(Cl)cc1,170.00 ± 1
2,O=C(/C=C/c1ccc(-c2cccc([N+](=O)[O-])c2)o1)c1ccc([N+](=O)[O-])cc1,218.00 ± 1
3,O=C(/C=C/c1ccc(-c2cccc([N+](=O)[O-])c2)o1)c1ccc(Br)cc1,160.00 ± 1
4,Nc1ccc(C(=O)/C=C/c2ccc(-c3cccc([N+](=O)[O-])c3)o2)cc1,171.00 ± 1
5,O=C(/C=C/c1ccc(-c2cccc([N+](=O)[O-])c2)o1)c1ccco1,178.00 ± 1
6,O=C(/C=C/c1ccc(-c2cccc([N+](=O)[O-])c2)o1)c1ccc(O)cc1,152.00 ± 1
7,COc1ccc(C(=O)/C=C/c2ccc(-c3cccc([N+](=O)[O-])c3)o2)cc1,141.00 ± 1
